Data as given in ChEMBL document CHEMBL1159093, “Discovery and optimization of RO-85, a novel drug-like, potent, and selective P2X3 receptor antagonist” (Bioorg Med Chem Lett, 2010).

Tests used:
[1] = target: Adenosine receptor A2a (Homo sapiens) (UniProt P29274); test: Displacement of [3H]CGS 21680 from human adenosine A2A receptor expressed in HEK293 cells at 10 uM after 120 mins by scintillation counting
[2] = target: Cholecystokinin receptor type A (Homo sapiens) (UniProt P32238); test: Displacement of [125I]CCK-8s from human recombinant CCK1 receptor expressed in CHO cells at 10 uM after 60 mins by scintillation counting; format: cell-based
[3] = target: Mu-type opioid receptor (Homo sapiens) (UniProt P35372); test: Displacement of [3H]DAMGO from human recombinant mu opioid receptor expressed in HEK293 cells at 10 uM after 120 mins by scintillation counting; format: cell-based
[4] = target: 5-hydroxytryptamine receptor 1A (Homo sapiens) (UniProt P08908); test: Displacement of [3H]8-OH-DPAT from human recombinant 5HT1A receptor expressed in HEK293 cells at 10 uM after 60 mins by scintillation counting; format: cell-based
[5] = target: Small conductance calcium-activated potassium channel (Rattus norvegicus) (UniProt P70604+P70606+P70605); test: Displacement of [125I]apamin from SK […] channel in rat cerebral cortex at 10 uM after 60 mins by scintillation counting; format: tissue-based
P2X purinoceptor 3 = target: T1, P2X purinoceptor 3 (Rattus norvegicus, UniProt P49654); test: Antagonist activity at rat P2X3 receptor expressed in CHO cells; format: functional, cell-based
T1 sequence (P49654 whole entry): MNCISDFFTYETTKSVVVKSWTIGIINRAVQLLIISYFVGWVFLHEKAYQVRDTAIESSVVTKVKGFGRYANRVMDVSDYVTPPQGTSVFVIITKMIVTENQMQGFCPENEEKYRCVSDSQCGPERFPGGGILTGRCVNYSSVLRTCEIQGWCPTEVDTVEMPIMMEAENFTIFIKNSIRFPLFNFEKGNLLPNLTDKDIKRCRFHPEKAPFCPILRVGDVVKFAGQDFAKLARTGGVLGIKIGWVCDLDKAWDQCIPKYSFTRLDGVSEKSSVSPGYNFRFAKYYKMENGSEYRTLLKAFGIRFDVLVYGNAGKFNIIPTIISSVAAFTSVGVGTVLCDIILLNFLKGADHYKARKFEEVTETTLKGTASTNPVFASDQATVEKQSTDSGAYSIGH

P2X purinoceptor 6 = P2X purinoceptor 6 (Homo sapiens, UniProt O15547); test: Antagonist activity at P2X6 receptor; format: functional
[6] = target: B2 bradykinin receptor (Homo sapiens) (UniProt P30411); test: Displacement of [3H]bradykinin from human recombinant bradykinin B2 receptor expressed in CHO cells at 10 uM after 60 mins by scintillation counting; format: cell-based
[7] = target: Type-2 angiotensin II receptor (Homo sapiens) (UniProt P50052); test: Displacement of [125I]CGP 42112A from human recombinant AT2 receptor expressed in HEK293 cells at 10 uM after 4 hrs by scintillation counting; format: cell-based
Rattus norvegicus [8] = organism: Rattus norvegicus; test: Displacement of [35S]TBPS from GABA gated chloride channel in rat cerebral cortex at 10 uM after 120 mins by scintillation counting; format: tissue-based
[9] = target: Muscarinic acetylcholine receptor M5 (Homo sapiens) (UniProt P08912); test: Displacement of [3H]4-DAMP from human recombinant muscarinic M5 receptor expressed in CHO cells at 10 uM after 60 mins by scintillation counting; format: cell-based
[10] = target: 5-hydroxytryptamine receptor 2A (Homo sapiens) (UniProt P28223); test: Displacement of [3H]ketanserin from human recombinant 5HT2A receptor expressed in HEK293 cells at 10 uM after 60 mins by scintillation counting; format: cell-based
[11] = target: Substance-P receptor (Homo sapiens) (UniProt P25103); test: Displacement of [125I]BH-SP from NK1 receptor in human U-373MG cells at 10 uM after 60 mins by scintillation counting; format: cell-based; conditions: U-373MG ATCC
[12] = Inhibition of Cytochrome P450 at <15 uM; format: ADME
[13] = target: Endothelin-1 receptor (Homo sapiens) (UniProt P25101); test: Displacement of [125I]endothelin-1 from human recombinant ETA receptor expressed in CHO cells at 10 uM after 120 mins by scintillation counting; format: cell-based
Rattus norvegicus [14] = organism: Rattus norvegicus; test: Displacement of [125I]a-dendrotoxin from potassium channel in rat cerebral cortex at 10 uM after 60 mins by scintillation counting; format: tissue-based
Rattus norvegicus [15] = organism: Rattus norvegicus; test: Displacement of [3H]TCP from PCP receptor in rat cerebral cortex at 10 uM after 120 mins by scintillation counting; format: tissue-based
[16] = target: Cannabinoid receptor 1 (Homo sapiens) (UniProt P21554); test: Displacement of [3H]CP-55940 from human recombinant CB1 receptor expressed in CHO cells at 10 uM after 120 mins by scintillation counting; format: cell-based
[17] = target: Platelet-derived growth factor receptor (Mus musculus) (UniProt P05622+P26618); test: Displacement of [125I]PDGF BB from PDGFR in BALB/c mouse 3T3 cells at 10 uM after 180 mins by scintillation counting; format: cell-based
[18] = target: Substance-K receptor (Homo sapiens) (UniProt P21452); test: Displacement of [125I]NKA from human recombinant NK2 receptor expressed in CHO cells at 10 uM after 60 mins by scintillation counting; format: cell-based
[19] = target: Nociceptin receptor (Homo sapiens) (UniProt P41146); test: Displacement of [3H]nociceptin from human recombinant NOP receptor expressed in HEK293 cells at 10 uM after 60 mins by scintillation counting; format: cell-based
[20] = target: Histamine H2 receptor (Homo sapiens) (UniProt P25021); test: Displacement of [125I]APT from human recombinant histamine H2 receptor expressed in CHO cells at 10 uM after 120 mins by scintillation counting; format: cell-based
Rattus norvegicus [21] = organism: Rattus norvegicus; test: Displacement of [35S]dATPaS from P2Y receptor in rat cerebral cortex at 10 uM after 60 mins by scintillation counting; format: tissue-based
[22] = target: Beta-1 adrenergic receptor (Homo sapiens) (UniProt P08588); test: Displacement of [3H]RX 821002 from human recombinant beta-1 adrenergic receptor expressed in HEK293 cells at 10 uM after 60 mins by scintillation counting; format: cell-based
[23] = target: Thromboxane A2 receptor (Homo sapiens) (UniProt P21731); test: Displacement of [3H]SQ29548 from human recombinant TP receptor expressed in HEK293 cells at 10 uM after 60 mins by scintillation counting; format: cell-based
[24] = target: Calcitonin gene-related peptide type 1 receptor (Homo sapiens) (UniProt Q16602); test: Displacement of [125I]hCGRPa from human recombinant CGRP receptor expressed in CHO cells at 10 uM after 90 mins by scintillation counting; format: cell-based
[25] = target: 5-hydroxytryptamine receptor 1B (Rattus norvegicus) (UniProt P28564); test: Displacement of [125I]CYP from 5HT1B receptor in rat cerebral cortex at 10 uM after 120 mins by scintillation counting in presence of 30 uM isoproterenol; format: tissue-based
CHO = test: Displacement of [3H]DADLE from human recombinant delta2 opioid receptor expressed in CHO cells at 10 uM after 120 mins by scintillation counting; format: cell-based
[26] = target: Adenosine receptor A1 (Homo sapiens) (UniProt P30542); test: Displacement of [3H]DPCPX from human recombinant A1 receptor expressed in CHO cells at 10 uM after 60 mins by scintillation counting; format: cell-based

Sequence of Calcitonin gene-related peptide type 1 receptor (Homo sapiens) (Q16602 whole entry): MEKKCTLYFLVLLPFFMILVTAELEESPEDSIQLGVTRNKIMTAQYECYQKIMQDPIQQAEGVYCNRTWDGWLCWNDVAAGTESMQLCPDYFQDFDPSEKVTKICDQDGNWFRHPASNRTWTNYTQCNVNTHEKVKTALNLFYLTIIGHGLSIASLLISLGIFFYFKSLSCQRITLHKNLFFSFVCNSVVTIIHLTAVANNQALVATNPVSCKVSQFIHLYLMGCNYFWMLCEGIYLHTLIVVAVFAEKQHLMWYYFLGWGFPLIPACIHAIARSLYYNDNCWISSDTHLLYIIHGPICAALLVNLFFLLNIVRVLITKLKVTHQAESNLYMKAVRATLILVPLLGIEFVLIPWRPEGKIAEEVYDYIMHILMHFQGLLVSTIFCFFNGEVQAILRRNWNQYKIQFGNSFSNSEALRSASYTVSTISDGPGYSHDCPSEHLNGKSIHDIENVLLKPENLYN
Sequence of B2 bradykinin receptor (Homo sapiens) (P30411 whole entry): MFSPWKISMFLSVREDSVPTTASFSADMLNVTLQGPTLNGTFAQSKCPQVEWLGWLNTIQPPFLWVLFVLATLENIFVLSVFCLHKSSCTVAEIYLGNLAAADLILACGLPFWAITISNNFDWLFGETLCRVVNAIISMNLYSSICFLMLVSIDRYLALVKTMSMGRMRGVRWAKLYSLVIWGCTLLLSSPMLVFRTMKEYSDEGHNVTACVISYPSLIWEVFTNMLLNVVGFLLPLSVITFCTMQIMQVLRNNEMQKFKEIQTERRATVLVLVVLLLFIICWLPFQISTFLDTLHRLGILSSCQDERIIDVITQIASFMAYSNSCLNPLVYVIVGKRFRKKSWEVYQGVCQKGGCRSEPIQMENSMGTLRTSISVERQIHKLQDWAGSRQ
Sequence of Cannabinoid receptor 1 (Homo sapiens) (P21554 whole entry): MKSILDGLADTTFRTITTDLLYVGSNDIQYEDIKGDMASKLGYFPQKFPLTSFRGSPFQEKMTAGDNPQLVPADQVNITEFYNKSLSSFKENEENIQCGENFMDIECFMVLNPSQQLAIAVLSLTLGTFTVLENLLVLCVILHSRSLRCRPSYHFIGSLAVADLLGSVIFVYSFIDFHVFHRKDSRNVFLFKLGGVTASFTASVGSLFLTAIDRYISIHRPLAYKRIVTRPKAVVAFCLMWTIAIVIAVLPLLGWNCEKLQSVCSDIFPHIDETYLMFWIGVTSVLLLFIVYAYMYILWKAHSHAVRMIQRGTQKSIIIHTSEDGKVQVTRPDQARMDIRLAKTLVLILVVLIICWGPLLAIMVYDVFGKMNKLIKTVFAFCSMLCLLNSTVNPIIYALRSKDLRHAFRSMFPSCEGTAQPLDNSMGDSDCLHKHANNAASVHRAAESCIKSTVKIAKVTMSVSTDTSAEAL
Sequence of Nociceptin receptor (Homo sapiens) (P41146 whole entry): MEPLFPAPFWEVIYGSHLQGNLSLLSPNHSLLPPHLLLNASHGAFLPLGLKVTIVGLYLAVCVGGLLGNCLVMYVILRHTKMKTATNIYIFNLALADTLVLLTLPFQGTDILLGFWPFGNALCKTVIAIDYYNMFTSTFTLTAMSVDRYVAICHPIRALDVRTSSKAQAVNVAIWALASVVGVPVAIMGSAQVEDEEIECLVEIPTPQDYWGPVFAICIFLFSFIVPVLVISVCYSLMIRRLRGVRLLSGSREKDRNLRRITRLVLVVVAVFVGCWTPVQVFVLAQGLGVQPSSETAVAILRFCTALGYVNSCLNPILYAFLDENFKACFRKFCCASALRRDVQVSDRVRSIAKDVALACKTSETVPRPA
Sequence of Histamine H2 receptor (Homo sapiens) (P25021 whole entry): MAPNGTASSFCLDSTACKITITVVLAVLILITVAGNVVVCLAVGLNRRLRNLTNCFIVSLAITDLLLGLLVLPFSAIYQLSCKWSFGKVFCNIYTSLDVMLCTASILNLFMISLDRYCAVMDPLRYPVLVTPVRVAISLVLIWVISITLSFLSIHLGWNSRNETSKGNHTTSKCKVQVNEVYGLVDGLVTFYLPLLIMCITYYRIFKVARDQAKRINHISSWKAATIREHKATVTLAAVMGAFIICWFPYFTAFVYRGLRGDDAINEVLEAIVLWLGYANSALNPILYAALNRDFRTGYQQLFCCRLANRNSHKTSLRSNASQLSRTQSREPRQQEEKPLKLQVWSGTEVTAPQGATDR
Sequence of P2X purinoceptor 6 (O15547 whole entry): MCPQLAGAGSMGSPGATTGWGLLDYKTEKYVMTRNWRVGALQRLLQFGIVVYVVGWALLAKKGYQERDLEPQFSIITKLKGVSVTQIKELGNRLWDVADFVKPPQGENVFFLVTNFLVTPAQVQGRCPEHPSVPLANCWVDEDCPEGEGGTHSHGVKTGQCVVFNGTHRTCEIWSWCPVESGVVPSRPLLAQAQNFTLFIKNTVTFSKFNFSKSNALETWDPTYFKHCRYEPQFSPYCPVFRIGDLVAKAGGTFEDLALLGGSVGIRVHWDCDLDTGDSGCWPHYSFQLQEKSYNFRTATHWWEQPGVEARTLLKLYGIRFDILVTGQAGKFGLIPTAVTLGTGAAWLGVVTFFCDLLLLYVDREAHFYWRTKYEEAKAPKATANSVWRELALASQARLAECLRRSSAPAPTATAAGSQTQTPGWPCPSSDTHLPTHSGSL
Sequence of Substance-P receptor (Homo sapiens) (P25103 whole entry): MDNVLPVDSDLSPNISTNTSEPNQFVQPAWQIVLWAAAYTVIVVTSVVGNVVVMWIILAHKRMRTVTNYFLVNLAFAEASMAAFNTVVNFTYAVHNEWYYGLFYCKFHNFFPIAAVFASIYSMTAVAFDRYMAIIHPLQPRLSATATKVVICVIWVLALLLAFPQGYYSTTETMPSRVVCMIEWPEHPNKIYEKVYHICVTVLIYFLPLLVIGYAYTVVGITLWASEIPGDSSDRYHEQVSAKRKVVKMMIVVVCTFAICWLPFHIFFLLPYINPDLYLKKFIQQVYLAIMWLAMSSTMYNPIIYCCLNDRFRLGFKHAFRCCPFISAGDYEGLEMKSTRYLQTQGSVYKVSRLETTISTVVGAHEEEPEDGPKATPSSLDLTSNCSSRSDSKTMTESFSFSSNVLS
Sequence of 5-hydroxytryptamine receptor 1A (Homo sapiens) (P08908 whole entry): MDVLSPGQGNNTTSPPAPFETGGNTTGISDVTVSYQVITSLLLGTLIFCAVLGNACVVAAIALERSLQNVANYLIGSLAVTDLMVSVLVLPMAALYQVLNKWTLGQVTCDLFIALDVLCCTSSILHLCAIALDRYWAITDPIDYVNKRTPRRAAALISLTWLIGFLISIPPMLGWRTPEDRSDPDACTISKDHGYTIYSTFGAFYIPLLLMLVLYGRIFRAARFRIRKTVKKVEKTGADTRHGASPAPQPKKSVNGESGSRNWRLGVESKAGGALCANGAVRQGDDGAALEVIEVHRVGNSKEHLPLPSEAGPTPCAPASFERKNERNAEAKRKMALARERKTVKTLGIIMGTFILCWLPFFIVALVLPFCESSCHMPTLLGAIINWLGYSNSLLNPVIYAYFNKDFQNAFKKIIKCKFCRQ
Sequence of Thromboxane A2 receptor (Homo sapiens) (P21731 whole entry): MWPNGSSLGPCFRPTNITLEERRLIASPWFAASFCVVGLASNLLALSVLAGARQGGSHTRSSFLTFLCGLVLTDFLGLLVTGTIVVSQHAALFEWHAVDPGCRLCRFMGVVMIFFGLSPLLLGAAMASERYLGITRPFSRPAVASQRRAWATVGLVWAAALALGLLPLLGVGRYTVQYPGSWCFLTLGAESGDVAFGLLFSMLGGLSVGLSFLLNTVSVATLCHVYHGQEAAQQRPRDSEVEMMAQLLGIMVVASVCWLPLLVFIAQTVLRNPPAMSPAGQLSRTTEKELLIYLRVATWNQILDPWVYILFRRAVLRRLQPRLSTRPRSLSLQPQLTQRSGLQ
Sequence of Mu-type opioid receptor (Homo sapiens) (P35372 whole entry): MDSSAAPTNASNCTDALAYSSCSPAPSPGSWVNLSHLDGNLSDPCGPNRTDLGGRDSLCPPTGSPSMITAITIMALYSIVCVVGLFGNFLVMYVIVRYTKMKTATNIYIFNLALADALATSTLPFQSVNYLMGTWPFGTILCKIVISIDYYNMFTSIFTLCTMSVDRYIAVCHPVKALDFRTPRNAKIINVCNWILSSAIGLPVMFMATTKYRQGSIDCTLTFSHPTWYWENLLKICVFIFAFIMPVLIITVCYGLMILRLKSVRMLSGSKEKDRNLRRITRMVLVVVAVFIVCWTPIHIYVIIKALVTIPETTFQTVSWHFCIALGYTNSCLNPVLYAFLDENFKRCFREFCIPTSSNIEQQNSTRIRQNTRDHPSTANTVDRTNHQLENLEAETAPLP
Sequence of Substance-K receptor (Homo sapiens) (P21452 whole entry): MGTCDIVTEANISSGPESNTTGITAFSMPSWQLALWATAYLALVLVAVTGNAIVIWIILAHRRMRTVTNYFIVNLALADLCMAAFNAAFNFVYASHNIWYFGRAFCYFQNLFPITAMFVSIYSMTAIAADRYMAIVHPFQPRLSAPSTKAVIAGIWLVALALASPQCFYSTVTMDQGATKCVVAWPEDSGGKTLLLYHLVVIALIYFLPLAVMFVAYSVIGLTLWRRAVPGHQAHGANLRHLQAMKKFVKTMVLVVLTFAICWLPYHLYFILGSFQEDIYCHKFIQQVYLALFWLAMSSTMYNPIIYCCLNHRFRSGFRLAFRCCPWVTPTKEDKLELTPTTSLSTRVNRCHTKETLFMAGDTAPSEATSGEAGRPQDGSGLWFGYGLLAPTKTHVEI
Sequence of 5-hydroxytryptamine receptor 2A (Homo sapiens) (P28223 whole entry): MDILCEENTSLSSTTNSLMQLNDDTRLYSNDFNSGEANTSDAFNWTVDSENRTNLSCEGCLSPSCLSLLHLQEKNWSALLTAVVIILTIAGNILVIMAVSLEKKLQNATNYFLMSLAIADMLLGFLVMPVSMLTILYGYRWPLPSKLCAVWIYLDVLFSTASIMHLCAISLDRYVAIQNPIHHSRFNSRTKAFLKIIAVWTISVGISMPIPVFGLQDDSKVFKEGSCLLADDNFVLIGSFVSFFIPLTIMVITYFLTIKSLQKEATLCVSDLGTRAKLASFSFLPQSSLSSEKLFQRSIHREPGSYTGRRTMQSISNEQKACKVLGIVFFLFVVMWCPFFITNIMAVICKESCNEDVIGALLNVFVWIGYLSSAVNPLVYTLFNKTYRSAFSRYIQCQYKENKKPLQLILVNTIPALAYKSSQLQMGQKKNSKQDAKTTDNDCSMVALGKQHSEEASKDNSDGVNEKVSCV

CC(=O)N1CCN(C[C@@H](C)NC(=O)c2cc3c(-c4ccccc4)nn(C)c3s2)CC1
Activity [1]: > 50%
Activity [2]: > 50%
Activity [3]: > 50%
Activity [4]: > 50%
Activity [5]: > 50%
IC50 (P2X purinoceptor 3): 31.6 nM
IC50 (P2X purinoceptor 6): > 10000 nM
Activity [6]: > 50%
Activity [7]: > 50%
Activity (Rattus norvegicus [8]): > 50%
Activity [9]: > 50%
Activity [10]: > 50%
Activity [11]: > 50%
Activity [12]: Not Active
Activity [13]: > 50%
Activity (Rattus norvegicus [14]): > 50%
Activity (Rattus norvegicus [15]): > 50%
Activity [16]: > 50%
Activity [17]: > 50%
Activity [18]: > 50%
Activity [19]: > 50%
Activity [20]: > 50%
Activity (Rattus norvegicus [21]): > 50%
Activity [22]: > 50%
Activity [23]: > 50%
Activity [24]: > 50%
Activity [25]: > 50%
Activity (CHO): > 50%
Activity [26]: > 50%
